Experimental findings from US7253177B2, “Synthesis and antimalarial activity of pyrrolo[3,2-f]quinazoline-1,3-diamine derivatives” (United States of America as Represented by the Secretary of …, priority 2004, dated 2007) are described below.

The test deals with P. cynomolgi sporozoites. Kind of test: Presumptive causal prophylactic test against P. cynomolgi in Rhesus monkey. It counts as in vivo, Plasmodium cynomolgi. To be noted: for protection compared with untreated control: oral 3 mg/kg, 3 mg/kg. Here is the method:
(e). Toxicity Study in Aotus monkey: Protocol: Two malaria double cured Aotus weighing 1027-695 grams respectively received single dose of 3 mg/kg orally of the two compounds 2b and 3e. The monkeys were weighed and pre-bleed for CBC and Chemistry (ALT, BUN, Creatinine) determination, and again three, seven and 15 days post treatment. Signs of toxicity such as anorexia, vomiting, diarrhea or behavior changes were recorded. […] (f). Antimalarial Activity against P. falciparum in Aotus monkey: Protocol: Six (6) malaria naive Aotus lemurinus lemurinus (weigh 787-978 grms) were divided into two groups of two Aotus each plus two controls (MN13177 male and MN 13153 male) and infected with 5×10^6 P. falciparum FVO malaria parasites with 1 ml of an appropriate dilution in RPMI media intravenously on the saphenous vein. When their parasitemia reached 5×10^4 parasites/ul, treatment was started. Giemsa-stained thick blood smears were prepared daily with a prick in the ear marginal vein and parasites enumerated by the Earle and Perez method. Group 1 Aotus received 3e at 1 mg/kg once a day×three days. Group 2 Aotus received 2b at 1 mg/kg once a day×three days. The monkeys were weight and pre-bled for CBC and Chemistry (ALT, BUN, Creatinine) determination, and on day 4 post-treatmetne (PT). Bleedings for Pk determinations were carried out on day 1 PT at time 0, 1 hr, 7:30 hr and 24 hr PT. Group 1 (receiving 3e) animals cleared the parasitemias on day 3 post treatment (PT) and remained negative up to 100 days PT. In group 2 (receiving 2b), one animal cleared on day 3 PT and the other one on day 4 PT remaining negative up to 100 days PT. […] (g). Antimalarial Activity against P. vivax in Aotus monkey: Protocol: Fourteen (14) P. falciparum cured Aotus l. lemurinus monkeys (male and female) (weight 700-925 grms) were infected intravenously with 5×10^6 parasites of the P. vivax AMRU-1 strain diluted in RPMI media obtained from a donor and divided into two larger groups of 6 monkeys each (Group I and Group II) (2 monkeys per dose level), that received 3e and 6 monkeys (2 monkeys per dose level) that received 2b daily at 0.5, 1.0 and 3 mg/kg/day for a total of 3 days. Two monkeys were left has untreated controls. Treatment started when parasitemia reached 5,000 parasites×cc/mm on day 6 PI. Daily food intake was documented. Daily Giemsa-stained thick blood smears were prepared from a prick in the marginal ear vein and parasites enumerated by the Earle and Perez method. The animals were weighed at weekly intervals. Blood samples for Pk determination were collected at the following time points as follows: Day 0: CBC and chemistry panel (ALT. Creatinine and BUN); Day 4: CBC and chemistry Panel. CBC and chemistry panels were done the day prior to first dose and 24 hours after last dose and at weekly intervals thereafter. […] The other monkeys received 1 and 3 mg/kg of 3e remained negative until day 100 PT. In Group II, all monkeys except for one that received 3 mg/kg of 2b failed treatment and were retreated on day 3 PT with 3e at either 0.25, 0.5 or 1 mg/kg for three days. In the monkeys that received re-treatment at 0.25 mg/kg, one cleared on day 4 PT but needed to be treated with Mefloquine on day 8 PT due to a low platelet count. The other animals that had not been cleared by day 6 PT were treated with Mefloquine. […] P. vivax is known to be very drug resistant to antifolates. (h). Presumptive Causal Prophylactic Test against P. cynomolgi in Rhesus monkey: Protocol:
(1). Type of study: This study is causal prophylactic test. Six Rhesus monkeys weighing 3-4 kg were randomized to 2 control animals and 2 groups of 2 experimental animals each.
(2). Donor monkey: A donor monkey was inoculated intravenously with 1.3 mL freshly-thawed frozen infected red blood cell. When the monkey developed gametocytemia, mosquito feedings were conducted on days 13 and 14 after inoculation. […]

“And” between values parts separate entries of the source, which are not always exact repeats. Identical values can stand only once.

On to `CCOC(=O)Nc1nc(NC(=O)OCC)c2c(ccc3c2ccn3Cc2ccccc2C(F)(F)F)n1` [Compound 2b], for which the “protection compared with untreated control” value is 8 days and 15 days. Further, where the note is “P. cynomolgi”, the comparative protection activity entry is given as “better protection activity than 3e”. In addition, the “day of parasitemia development after sporozoite challenge” value (from here on “day of parasitemia development”) (oral 1 mg/kg on days -1, 0, 1, control day 8, listed as WR288830) is 9 days and 15 days.
In the case of `CC(=O)N(C(C)=O)c1nc(N(C(C)=O)C(C)=O)c2c(ccc3c2ccn3Cc2ccccc2C(F)(F)F)n1` [Compound 3e, 1,3-Bis(diacetylamino)-7-(2-trifluoromethyl)benzyl-7H-pyrrolo[3,2-f]quinazoline], the “protection compared with untreated control” value is 7 days. Also, for the setting “oral 1 mg/kg on days -1, 0, 1, control day 8”, the “day of parasitemia development” value is 8 days and 11 days. For the same compound, the “day of parasitemia development” value (oral 3 mg/kg on days -1, 0, 1, control day 8) turned out to be 15 days.
